Measured values from patent publication US7846473B2, “Irinotecan preparation” (Terumo Kabushiki Kaisha, priority 2004, dated 2010).

Columns and labels:
Assay type in all cases: in vivo
[1] = system: neutrophils and lymphocytes; assay: Hemotoxicity in rat; conditions: i.v. tail vein
Protocol: Collecting blood of 0.4 mL from a cervical vein of the rat before and after injection; and after 2, 4, 6, 13, 20, and 27 days (for 4 weeks); the number of neutrophils and lymphocytes was measured with automated hematology analyzer (Sysmex XT-2000i, Sysmex). FIGS. 12 and 13 show the results.

[2] = system: Mouse fibrosarcoma (Meth A); assay: Antitumor effect due to administration of a drug three times, Meth A; conditions: Meth A in BALB/c mouse; for Inhibition rate (%) / Tumor weight (g, mean ± S.D.): 21 days from transplantation
Protocol: Mouse fibrosarcoma (Meth A), 2.5×10^5 cells/mouse were transplanted subcutaneously in an inguinal region of a mouse (BALB/c, female, 7 weeks old, CLEA Japan, Inc.). […] Mice without injection of either agent were employed as a control group.
The tumors were also removed after 21 days from the transplantation and weight of the tumors was measured, to thereby calculate each tumor proliferation inhibition rate, I.R. (%) by the formula as shown in Test Example 6.

[3] = system: Human lung cancer cells (QG56); assay: Antitumor effect, human lung cancer QG56 transplanted in mouse; conditions: QG56 in BALB/c nude mouse; for Inhibition rate (%) / Tumor weight (g, mean ± S.D.): 21 days after first injection
Protocol: Human lung cancer cells (QG56) with 2 to 3 mm square were transplanted subcutaneously in an inguinal region of a mouse (BALB/c nude, male, 6 weeks old, CLEA Japan, Inc.) with a needle for transplantation. […] Mice without injection of either agent were employed as a control group.
The estimated volume of each tumor and a body weight of the mouse were calculated 4, 8, 12, 16, and 21 days after the first injection. The tumors were also removed 21 days after the first injection and a weight of the tumors was measured, to thereby calculate each tumor proliferation inhibition rate, I.R. (%) by the formula as shown in Test Example 6. The results are shown in Table 16, FIG. 28, and FIG. 29.

[4] = Pharmacokinetics in cynomolgus monkey
Protocol: Providing 50 μL of blood plasma with 550 μL of an internal standard solution B (a methanol solution of internal standard substances) and employing centrifugal force, the supernatant was diluted with methanol 100-fold as a sample for the total CPT-11 concentration measurement. Meanwhile, Providing 50 μL of each blood plasma with 200 μL of an internal standard solution A (0.147 mol/L H3PO4 solution of internal standard substances), 200 μL thereof was subjected to a centrifugal separation (100,000×g, for 30 min, 10° C.). 100 μL in upper layer were separated and were employed solid-phase extraction, to obtain the eluent as samples for free CPT-11 (i.e., CPT-11 released from liposome, hereinafter referred as “liposome-released CPT-11”) concentration measurement, SN-38 concentration measurement, and SN-38G (SN-38 10-O-gluclonide) concentration measurement. The samples obtained were measured each concentration thereof with LC/MS/MS. FIGS. 8 to 11 show the results.

[5] = Pharmacokinetics due to single administration in Meth A tumor-bearing mouse (plasma and tumor); conditions: Meth A-bearing BALB/c mouse, 10 mg/kg i.v.
[6] = system: Human colon cancer cells (HT-29); assay: Antitumor effect, human colon cancer HT-29 transplanted in mouse; conditions: HT-29 in BALB/c nude mouse; for Inhibition rate (%) / Tumor weight (g, mean ± S.D.): 21 days after injection
Protocol: Human colon cancer cells (HT-29) with 2 to 3 mm square were transplanted subcutaneously in an inguinal region of a mouse (BALB/c nude, male, 6 weeks old, CLEA Japan, Inc.) with a needle for transplantation. […] Mice without injection of either agent were employed as a control group.
The estimated volume of tumors and a body weight of the mouse were calculated at 4, 8, 12, 17, 21 days after a first injection. The tumors were also removed 21 days after the injection and the weight of the tumors were measured, to thereby calculate a tumor proliferation inhibition rate, I.R. (%) by the formula as shown in Test Example 6.

[7] = system: Mouse fibrosarcoma (Meth A); assay: Antitumor effect due to administration of a drug once or twice, Meth A; conditions: Meth A in BALB/c mouse; for Inhibition rate (%) / Tumor weight (g, mean ± S.D.): 21 days from transplantation
Protocol: Mouse fibrosarcoma (Meth A), 2.5×10^5 cells/mouse were transplanted subcutaneously in an inguinal region of a mouse (BALB/c, female, 7 weeks old, CLEA Japan, Inc.). […] Mice without injection of any agent were employed as a control group.
The tumors were also removed after 21 days from the transplantation and weight of the tumors was measured, to thereby calculate tumor proliferation inhibition rate, I.R. (%) by the formula as shown in Test Example 6.

[8] = system: human prostatic cancer cells (PC-3); assay: Antitumor effect, human prostatic cancer PC-3 implanted in mouse; conditions: PC-3 in BALB/c nude mouse; for Inhibition rate (%) / Tumor weight (g, mean ± S.D.): Day 22
Source text: (§1) 2.5×10^6 cells/mouse of human prostatic cancer cells (PC-3) were implanted subcutaneously in left inguinal region of the mouse (BALB/c nude, male, 6 weeks old, Charles River Japan, Inc.). After implanting tumors, a presumptive tumor volume calculated by ½·ab^2 (a represents a longitudinal diameter of a tumor and b represents a short axis diameter thereof). […] There were mice without injection of either agent as a control group.
A presumptive tumor volume and a body weight of a mouse were measured at Days 1, 5, 9, 12, 16, and 22.
After extracting tumors and measuring a weight thereof at Day 22, further, an inhibition rate of tumor growth I.R. (%) was calculated by the following formula. I.R. %=(1−average tumor weight in a treatment group/average tumor weight in a control group)×100

Retentivity in blood = conditions: female, plasma, iv; BALB/c mouse, 10 mg/kg i.v. tail, elapsed time 1 hr; read-out: Concentration in plasma of irinotecan hydrochloride
[9] = system: human colon cancer cells (HCT116); assay: Antitumor effect, human colon cancer HCT116 implanted in mouse; conditions: HCT116 in BALB/c nude mouse; for Inhibition rate (%) / Tumor weight (g, mean ± S.D.): 21 days after injection
Protocol: as §1, with “2×10^6” for “2.5×10^6”, “colon” for “prostatic”, “(HCT116)” for “(PC-3)”, “♂,” for “male,”, “volume was” for “volume”, “thereof) achieved to about 90 mm^3 in a day (Day 0).” for “thereof).”
A presumptive tumor volume and a body weight of a mouse were measured after 5, 8, 12, 16, and 21 days from the injection. Extracting tumors 21 days after the injection and measuring a weight thereof, further, an inhibition rate of tumor growth I.R. (%) was calculated by the formula as shown in Test Example 6.

[10] = 50 mg/kg i.v., treatment on days 7, 9, 11
[11] = 50 mg/kg i.v., treatment on days 7, 11, 15
[12] = 100 mg/kg i.v., treatment on days 7, 9, 11
[13] = 100 mg/kg i.v., treatment on days 7, 11, 15
[14] = 12.5 mg/kg i.v., treatment on day 7
[15] = 12.5 mg/kg i.v., treatment on days 7, 11
[16] = 25 mg/kg i.v., treatment on day 7
[17] = 25 mg/kg i.v., treatment on day 11
[18] = 25 mg/kg i.v., treatment on days 7, 11
[19] = 50 mg/kg i.v., treatment on day 7
[20] = 50 mg/kg i.v., treatment on day 11
[21] = 50 mg/kg i.v., treatment on days 7, 11

time of highest SN-38 concentration in blood plasma ([4]; 10 mg/kg i.v.): immediately after injection
time of highest free (liposome-released) CPT-11 concentration in blood plasma ([4]; 10 mg/kg i.v.): immediately after injection
concentration at 1 h ([4]; male, plasma, iv, 10 mg/kg i.v. over 4 min, until 1 hour, lower limit of quantification, read-out: total CPT-11 concentration in blood plasma): < 1000 ng/mL
time of maximum concentration of irinotecan hydrochloride in the tumor tissue [5]: 0.5 h
concentration at 1 h (Retentivity in blood): 390 ng/mL
Compound: CCc1c2c(nc3ccc(OC(=O)N4CCC(N5CCCCC5)CC4)cc13)-c1cc3c(c(=O)n1C2)COC(=O)[C@]3(O)CC [(+)-(4S)-4,11-diethyl-4-hydroxy-9-[(4-piperidino-piperidino)carbonyloxy]-1H-pyrano[3′,4′:6,7]indolizino[1,2-b]quinolin-3,14(4H,12H)-dione]
number of lymphocytes [1]: on a decline immediately after injection albeit only slightly
Inhibition rate (%) [2, 10]: 26.9%
Tumor weight (g, mean ± S.D.) [2, 10]: 1.47 ± 0.18 g
Inhibition rate (%) [2, 11]: 1.0%
Tumor weight (g, mean ± S.D.) [2, 11]: 1.99 ± 0.47 g
Inhibition rate (%) [2, 12]: 86.0%
Tumor weight (g, mean ± S.D.) [2, 12]: 0.28 ± 0.42 g
Inhibition rate (%) [2, 13]: 37.4%
Tumor weight (g, mean ± S.D.) [2, 13]: 1.26 ± 0.49 g
effect on body weight of the mouse ([2]; 50-100 mg/kg i.v. three times): didn't affect the body weight of the mouse
tumor proliferation compared to the control group ([2]; three administrations): significant tumor proliferation inhibitory effect
tumor proliferation compared to the control group [3]: significant tumor proliferation inhibitory effect
Inhibition rate (%) ([3]; 25 mg/kg i.v. days 1, 5, 9): 35.5%
Tumor weight (g, mean ± S.D.) ([3]; 25 mg/kg i.v. days 1, 5, 9): 1.88 ± 0.43 g
Inhibition rate (%) ([3]; 50 mg/kg i.v. days 1, 5, 9): 48.7%
Tumor weight (g, mean ± S.D.) ([3]; 50 mg/kg i.v. days 1, 5, 9): 1.49 ± 0.51 g
Inhibition rate (%) ([3]; 100 mg/kg i.v. days 1, 5, 9): 67.2%
Tumor weight (g, mean ± S.D.) ([3]; 100 mg/kg i.v. days 1, 5, 9): 0.95 ± 0.18 g
effect on body weight of the mouse ([3]; 25-100 mg/kg i.v. days 1, 5, 9): didn't affect the body weight of the mouse
tumor proliferation compared with the control group [6]: strong tumor proliferation inhibitory effect
Inhibition rate (%) ([6]; 25 mg/kg i.v. days 1, 5, 9): 38.2%
Tumor weight (g, mean ± S.D.) ([6]; 25 mg/kg i.v. days 1, 5, 9): 0.36 ± 0.41 g
Inhibition rate (%) ([6]; 50 mg/kg i.v. days 1, 5, 9): 24.9%
Tumor weight (g, mean ± S.D.) ([6]; 50 mg/kg i.v. days 1, 5, 9): 0.44 ± 0.36 g
Inhibition rate (%) ([6]; 100 mg/kg i.v. days 1, 5, 9): 44.0%
Tumor weight (g, mean ± S.D.) ([6]; 100 mg/kg i.v. days 1, 5, 9): 0.33 ± 0.32 g
effect on body weight of the mouse ([6]; 25-100 mg/kg i.v. days 1, 5, 9): didn't affect the body weight of the mouse
Inhibition rate (%) [7, 14]: 20.2%
Tumor weight (g, mean ± S.D.) [7, 14]: 2.82 ± 0.51 g
Inhibition rate (%) [7, 15]: 29.4%
Tumor weight (g, mean ± S.D.) [7, 15]: 2.49 ± 0.29 g
Inhibition rate (%) [7, 16]: 26.0%
Tumor weight (g, mean ± S.D.) [7, 16]: 2.61 ± 0.40 g
Inhibition rate (%) [7, 17]: 32.1%
Tumor weight (g, mean ± S.D.) [7, 17]: 2.40 ± 0.74 g
Inhibition rate (%) [7, 18]: 34.1%
Tumor weight (g, mean ± S.D.) [7, 18]: 2.33 ± 0.62 g
Inhibition rate (%) [7, 19]: 33.7%
Tumor weight (g, mean ± S.D.) [7, 19]: 2.34 ± 0.17 g
Inhibition rate (%) [7, 20]: 44.0%
Tumor weight (g, mean ± S.D.) [7, 20]: 1.98 ± 0.45 g
Inhibition rate (%) [7, 21]: 41.2%
Tumor weight (g, mean ± S.D.) [7, 21]: 2.08 ± 0.43 g
effect on body weight of the mouse ([7]; 12.5-50 mg/kg i.v. once or twice): didn't affect the body weight of the mouse
tumor proliferation compared to the control group ([7]; one or two administrations): significant tumor proliferation inhibitory effect compared to the control group unless a part of the physiological saline solutions of irinotecan hydrochloride
tumor growth compared to the control group [8]: significant suppressive effect of tumor growth
Inhibition rate (%) ([8]; 25 mg/kg i.v. days 1, 5, 9): 49.0%
Tumor weight (g, mean ± S.D.) ([8]; 25 mg/kg i.v. days 1, 5, 9): 0.64 ± 0.25 g
Inhibition rate (%) ([8]; 50 mg/kg i.v. days 1, 5, 9): 48.0%
Tumor weight (g, mean ± S.D.) ([8]; 50 mg/kg i.v. days 1, 5, 9): 0.66 ± 0.13 g
Inhibition rate (%) ([8]; 100 mg/kg i.v. days 1, 5, 9): 62.3%
Tumor weight (g, mean ± S.D.) ([8]; 100 mg/kg i.v. days 1, 5, 9): 0.48 ± 0.20 g
influence on body weight of the mouse ([8]; 25-100 mg/kg i.v. days 1, 5, 9): did not influence the body weight of the mouse
tumor growth compared to the control group [9]: significant suppressive effect of tumor growth
Inhibition rate (%) ([9]; 18.75 mg/kg i.v. Days 1, 5, 9): 39.0%
Tumor weight (g, mean ± S.D.) ([9]; 18.75 mg/kg i.v. Days 1, 5, 9): 0.76 ± 0.06 g
Inhibition rate (%) ([9]; 37.5 mg/kg i.v. Days 1, 5, 9): 43.4%
Tumor weight (g, mean ± S.D.) ([9]; 37.5 mg/kg i.v. Days 1, 5, 9): 0.71 ± 0.08 g
Inhibition rate (%) ([9]; 75 mg/kg i.v. Days 1, 5, 9): 57.4%
Tumor weight (g, mean ± S.D.) ([9]; 75 mg/kg i.v. Days 1, 5, 9): 0.53 ± 0.14 g
influence on body weight of the mouse ([9]; 18.75-75 mg/kg i.v. Days 1, 5, 9): did not influence the body weight of the mouse
